Where a name gives a salt, the structure may show the parent alone.
How the values were obtained:
Type in all cases: physicochemical
[1] = Solubility in water
[2] = Visual characteristics of the film prepared (particles, transparency)
Method: (§1) A preparative experimentation was conducted to analyze the particle size of a sildenafil free base and the characteristics thereof in several film preparations depending on the rpm conditions (3,000 or 5,000 rpm) of a homogenizer (AGI homomixer) and homogenization times (0, 10 and 30 minutes), the film preparations having the same compositions as the Examples shown in Table 6.
(§2) In order to prepare films containing sildenafil free base particles having a smaller size, the film preparation having the same compositions as the Example 8 shown in Table 6 were subject to homogenization using a homogenizer (IKA) at 10,000 rpm for 1 hour.

[3] = Particle size of sildenafil free base, Mastersizer 2000 (Malvern), wet method
Method: as §1
First, the raw materials of a sildenafil free base before homogenization were measured for their particle size using Mastersizer 2000 (Malvern) by a wet method, and the results thereof are shown in Table 1. The same procedure was repeated three times.
The particle size changes of a sildenafil free base depending on homogenization times were measured under the condition of a larger scale than the previous experimentation. The homogenization was carried out using a homogenizer (IKA) at 5,000 rpm with increasing homogenization time. The sildenafil free base-containing film preparations used in the homogenization had the same compositions as the Examples shown in Table 6.
as §2

[4] = after homogenization 3000 rpm, 30 minutes
[5] = after homogenization 5000 rpm, 10 minutes
[6] = sildenafil free base raw material before homogenization (Initial)

SMILES | Solubility in water [1] | Characteristics ([2]; 3000 rpm, 30 minutes) | Characteristics ([2]; 5000 rpm, 10 minutes) | Particle size D10 [3, 4] | Particle size D90 [3, 4] | Particle size D10 [3, 5] | Particle size D90 [3, 5] | D10 [3, 6] | D90 [3, 6]
CCCc1nn(C)c2c(=O)[nH]c(-c3cc(S(=O)(=O)N4CCN(C)CC4)ccc3OCC)nc12 [sildenafil citrate] | can dissolve in water |  |  |  |  |  |  |  | 
CCCc1nn(C)c2c(=O)[nH]c(-c3cc(S(=O)(=O)N4CCN(C)CC4)ccc3OCC)nc12 [sildenafil free base] | practically insoluble in water | Particles were visually observed | Particles were scarcely observed | 8.91 μm | 109.66 μm | 8.59 μm | 85.99 μm | 13.48 μm | 281.74 μm

Source: US9907759B2, “Sildenafil-free base-containing film preparation and method for producing same” (CTC Bio, Inc., priority 2011, dated 2018)
